# Measured values from the supplement of paper PMC10307832.
# What was measured:
# Assay in all cases: relative viability (nuclei count vs DMSO), 5 days (fraction); higher = more cells survive
# Crenolanib + Olaparib = compound: CC1(COc2ccc3c(c2)ncn3-c2ccc3cccc(N4CCC(N)CC4)c3n2)COC1 [Crenolanib] + O=C(c1cc(Cc2n[nH]c(=O)c3ccccc23)ccc1F)N1CCN(C(=O)C2CC2)CC1 [Olaparib] (partner 8 µM)
# Procedure, shortened: (§1)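 One day after seeding in 1536-well plates, lung cancer cell lines were dosed by pin tool. Dosing was either single-drug or a fixed anchor-drug dose plus five library-drug doses (not always all listed) in √10 steps. After 5 days, nuclei were stained in one fix-and-stain step and counted on 4× images, and relative viability is the nuclei count of treated wells over that of vehicle wells, given as the median of duplicate plates.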
# Tivantinib + Trametinib = compound: O=C1NC(=O)[C@@H](c2cn3c4c(cccc24)CCC3)[C@@H]1c1c[nH]c2ccccc12 [Tivantinib] + CC(=O)Nc1cccc(-n2c(=O)n(C3CC3)c(=O)c3c(Nc4ccc(I)cc4F)n(C)c(=O)c(C)c32)c1 [Trametinib] (partner 0.02 µM)
# Procedure, shortened: as §1
# Tivantinib + OSI-027 = compound: O=C1NC(=O)[C@@H](c2cn3c4c(cccc24)CCC3)[C@@H]1c1c[nH]c2ccccc12 [Tivantinib] + COc1cccc2cc(-c3nc([C@H]4CC[C@H](C(=O)O)CC4)n4ncnc(N)c34)[nH]c12 [OSI-027] (partner 0.5 µM)
# Procedure, shortened: as §1
# Tivantinib + Crizotinib = compound: O=C1NC(=O)[C@@H](c2cn3c4c(cccc24)CCC3)[C@@H]1c1c[nH]c2ccccc12 [Tivantinib] + C[C@@H](Oc1cc(-c2cnn(C3CCNCC3)c2)cnc1N)c1c(Cl)ccc(F)c1Cl [Crizotinib] (partner 1 µM)
# Procedure, shortened: as §1
Cell Line,relative viability (Crenolanib + Olaparib; first compound 0.01 µM),relative viability (Crenolanib + Olaparib; first compound 0.03162 µM),relative viability (Crenolanib + Olaparib; first compound 0.1 µM),relative viability (Crenolanib + Olaparib; first compound 0.3162 µM),relative viability (Crenolanib + Olaparib; first compound 1 µM),relative viability (Tivantinib + Trametinib; first compound 0.01 µM),relative viability (Tivantinib + Trametinib; first compound 0.03162 µM),relative viability (Tivantinib + Trametinib; first compound 0.1 µM),relative viability (Tivantinib + Trametinib; first compound 0.3162 µM),relative viability (Tivantinib + OSI-027; first compound 0.01 µM),relative viability (Tivantinib + OSI-027; first compound 0.03162 µM),relative viability (Tivantinib + OSI-027; first compound 0.1 µM),relative viability (Tivantinib + OSI-027; first compound 0.3162 µM),relative viability (Tivantinib + Crizotinib; first compound 0.01 µM),relative viability (Tivantinib + Crizotinib; first compound 0.03162 µM),relative viability (Tivantinib + Crizotinib; first compound 0.1 µM),relative viability (Tivantinib + Crizotinib; first compound 0.3162 µM)
NCI-H2342,0.445,0.484,0.411,0.445,0.494,0.749,0.764,0.782,0.665,0.63,0.597,0.585,0.532,–,–,–,–
SK-MES-1,0.759,0.705,0.682,0.791,0.674,0.645,0.511,0.521,0.582,0.668,0.435,0.554,0.482,0.984,1.06,0.89,0.739
EPLC-272H,0.854,0.868,0.605,1.11,0.989,0.346,0.27,0.265,0.227,0.319,0.32,0.293,0.147,1.04,0.963,0.785,0.82
HCC-44,0.983,0.941,0.976,0.98,0.991,1.04,1.11,1.02,1.02,0.488,0.534,0.441,0.669,0.766,0.915,0.773,0.787
201T,0.83,0.852,0.786,0.867,0.86,0.694,0.713,0.729,0.69,0.962,0.718,0.665,0.74,1.01,1.01,1.04,1.02
HOP-62,0.398,0.192,0.45,0.387,0.33,0.458,0.346,0.356,0.37,0.831,0.566,0.876,0.887,0.828,–,0.972,1.03
NCI-H650,0.4,0.379,0.343,0.339,0.325,0.936,0.787,0.899,0.945,0.542,0.403,0.501,0.641,0.728,–,0.629,0.557
NCI-H2085,–,0.752,0.714,0.782,0.784,0.62,0.484,0.544,0.516,0.773,0.582,0.851,0.412,0.909,0.76,0.75,0.756
NCI-H596,0.731,0.806,0.68,0.64,0.681,0.897,0.839,0.774,0.678,0.619,0.62,0.821,0.734,1.08,0.92,0.987,0.905
SK-LU-1,0.547,0.491,0.331,0.7,0.534,0.514,0.549,0.484,0.472,0.364,0.342,0.381,0.363,0.95,1.01,0.872,0.716
A-427,0.79,–,0.759,0.847,0.629,0.795,0.786,0.737,0.673,0.556,0.413,0.487,0.456,0.893,1.02,0.821,0.859
NCI-H460,0.445,0.366,0.405,0.438,0.415,0.172,0.114,0.286,0.169,0.608,0.573,0.619,0.864,0.878,0.884,0.848,0.217
NCI-H1734,0.617,0.676,0.568,0.7,0.605,0.611,0.676,0.677,0.604,0.646,0.553,0.643,0.576,0.685,0.73,0.586,0.569
NCI-H1915,0.267,0.278,0.266,0.283,0.244,0.287,0.294,0.282,0.276,0.626,0.543,0.648,0.715,0.868,0.888,0.852,0.91
Calu-6,0.596,0.494,0.529,0.643,0.556,–,–,–,–,–,–,–,–,0.795,0.799,0.665,0.826
SW 1573,0.589,0.416,0.44,0.651,0.484,0.682,0.488,0.561,0.452,0.636,0.612,0.562,0.556,0.751,0.761,0.902,0.496
RERF-LC-KJ,0.864,0.942,0.871,1.03,0.93,0.875,0.845,0.855,0.688,0.592,0.646,0.512,0.389,0.831,0.886,0.852,0.831
EMC-BAC-2,0.559,–,0.466,0.532,0.462,0.907,0.934,0.879,0.868,0.366,0.3,0.347,0.357,0.833,0.728,0.751,0.657
LK-2,0.837,0.572,0.655,1.06,0.585,0.723,0.454,0.683,0.518,0.225,–,0.219,0.243,0.2,–,0.223,0.218
NCI-H2228,0.76,0.833,0.684,1.13,0.686,0.608,0.396,0.494,0.227,–,0.548,0.541,0.234,0.449,0.481,0.427,0.337
NCI-H322M,0.741,0.779,0.651,0.806,0.795,0.486,0.471,0.449,–,0.542,0.501,0.546,–,0.823,0.94,0.901,1.02
NCI-H1993,1.16,1.13,1.07,1.15,0.937,0.545,0.462,0.565,0.437,0.538,0.57,0.563,0.61,0.931,0.929,0.899,0.765

Cell Line,relative viability (Crenolanib + Olaparib; first compound 0.01 µM),relative viability (Crenolanib + Olaparib; first compound 0.03162 µM),relative viability (Crenolanib + Olaparib; first compound 0.1 µM),relative viability (Crenolanib + Olaparib; first compound 0.3162 µM),relative viability (Crenolanib + Olaparib; first compound 1 µM),relative viability (Tivantinib + Trametinib; first compound 0.01 µM),relative viability (Tivantinib + Trametinib; first compound 0.03162 µM),relative viability (Tivantinib + Trametinib; first compound 0.1 µM),relative viability (Tivantinib + Trametinib; first compound 0.3162 µM),relative viability (Tivantinib + OSI-027; first compound 0.01 µM),relative viability (Tivantinib + OSI-027; first compound 0.03162 µM),relative viability (Tivantinib + OSI-027; first compound 0.1 µM),relative viability (Tivantinib + OSI-027; first compound 0.3162 µM),relative viability (Tivantinib + Crizotinib; first compound 0.01 µM),relative viability (Tivantinib + Crizotinib; first compound 0.03162 µM),relative viability (Tivantinib + Crizotinib; first compound 0.1 µM),relative viability (Tivantinib + Crizotinib; first compound 0.3162 µM)
NCI-H1944,0.404,0.387,0.412,0.413,0.397,0.449,0.406,0.444,0.345,0.372,0.349,0.393,0.328,1.01,1.01,1.03,0.64
LXF-289,1.08,0.954,1,1.16,1.08,0.628,0.631,0.628,0.669,0.77,0.724,0.761,0.858,0.792,0.819,0.777,0.827
NCI-H2405,0.919,–,0.742,0.919,0.86,0.771,0.63,0.615,0.597,0.717,0.637,0.632,0.574,0.892,0.879,0.821,0.821
NCI-H2023,0.53,0.467,0.476,0.451,0.322,0.593,0.551,0.433,0.414,0.372,0.363,0.356,0.341,0.602,0.762,0.673,0.639
HCC-366,0.414,0.362,0.344,0.509,0.332,0.355,0.523,0.338,0.332,0.941,0.807,0.848,0.934,0.641,0.559,0.43,0.672
HCC-78,0.998,0.86,0.678,0.826,0.745,0.761,0.696,0.589,0.445,0.36,0.37,0.367,0.32,0.341,0.321,0.317,0.206
COR-L23,0.321,0.342,0.307,0.347,0.291,0.634,0.558,0.545,0.661,0.783,0.7,0.787,0.919,0.677,0.662,0.611,0.844
HCC-827,0.702,0.659,0.655,0.634,0.677,0.54,0.576,0.461,–,0.764,0.844,0.708,0.253,0.92,1.01,0.91,0.779
NCI-H1299,0.965,0.921,0.916,0.978,0.935,–,–,–,–,–,–,–,–,0.686,0.972,0.587,0.93
ABC-1,1.01,0.78,0.614,0.668,0.625,–,–,–,–,0.586,0.422,0.538,0.603,1.39,1.14,0.91,1.5
NCI-H1793,0.993,0.947,0.889,1.13,0.762,0.506,0.408,0.404,0.329,0.257,0.355,0.258,0.154,–,–,–,–
IA-LM,0.847,0.907,0.88,0.817,0.883,–,–,–,–,–,–,–,–,0.962,0.857,0.677,1.08
NCI-H1563,–,–,–,–,–,–,–,–,–,0.78,0.756,0.718,0.745,0.851,0.893,0.822,0.884
NCI-H1703,0.376,0.383,0.175,0.242,0.192,–,–,–,–,–,–,–,–,0.747,1.01,0.535,0.255
NCI-H1648,1.08,–,0.717,0.899,0.853,–,0.505,0.343,0.31,0.254,0.259,0.238,–,–,–,–,–
A549,0.474,0.317,0.329,0.421,0.365,–,–,–,–,–,–,–,–,0.894,0.81,0.713,0.638
NCI-H522,0.581,0.676,0.639,0.591,0.62,0.859,0.605,0.815,0.645,0.749,0.648,0.624,0.617,–,–,–,–
NCI-H1623,–,–,–,–,–,–,–,–,–,0.434,0.442,0.487,–,–,–,–,–
SW 900,0.925,–,0.8,0.959,0.979,0.775,0.649,0.734,0.763,0.605,0.443,0.583,0.533,–,–,–,–
NCI-H1395,0.495,0.453,0.543,0.439,0.45,0.987,1.11,1.02,0.83,0.678,0.662,0.651,0.599,–,–,–,–
EBC-1,0.768,0.727,0.667,0.663,0.641,–,–,–,–,–,–,–,–,0.184,0.189,0.195,0.198
